Results on three molecules are retold here after US8962685B2 (Vireo Systems Inc., priority 2003, dated 2015).

Molecules are shown by their SMILES.

A short description of data set [1]: Plasma uptake and relative bioavailability after oral administration in healthy human volunteers (Example 3). The settings on record: for Plasma creatine following administration: oral 5 gram dose, versus pre-dose. The source says: The order of treatment was randomly assigned and there was a 1-week wash out period between creatine treatments.
Data set [2] can be described thus: Stability of creatine in aqueous solution over 45 days (Example 4). The source says:
With regard to latent product storage, standard shelf-life according to the FDA is considered to be the time it takes for 10 percent of the starting material to degrade in a given sample. […] Each data point is representative of three different samples. […] The creatine content of each sample was examined over a 45-day period.

For data set [3] the following is noted: cited from earlier work.

In the case of `CN(CC(=O)O)C(=N)N.Cl` [creatine HCl, creatine hydrochloride], the increase in bioavailability result in data set [1] (in vivo, po) is “approximately 50%”. For the same molecule, the “Plasma creatine following administration” value in data set [1] is on record as “significantly elevated”. In addition, the “shelf-life in aqueous solution (time for 10 percent to degrade)” value in data set [2] (1.5 mg/mL) was at least 45 days. In addition, the “original creatine remaining in the aqueous solution” value in data set [2] (buffer, 1080 h, 1.5 mg/mL) was “approximately 95%”.

Turning to `CCOC(=O)CN(C)C(=N)N` [creatine ethyl ester], the “standard degradation time in water” value in data set [3] is on record as “less than one”.

With `CN(CC(=O)O)C(=N)N.O` [creatine monohydrate], the “Plasma creatine following administration” value in data set [1] is given as “significantly elevated”. For the same molecule, the “original creatine remaining in the aqueous solution” value in data set [2] (room temperature (about 21° C.), 45 days, initially 1.5 mg/mL) is “about 75%”.
